Laboratory results: patent US20230404914A1 (priority 2020, published 2023)

Assays:
[1] = averaged; cited from earlier work
[2] = Clinical study: safety, compatibility, adverse events
[3] = Clinical study: plasma concentrations after OTF administration; conditions: for plasma level following OTF compared to intravenous administration of 20 mg (S)-ketamine / Cmax: human; for plasma level following OTF compared to intravenous administration of 20 mg (S)-ketamine: in vivo; for Cmax: plasma, Cmax plasma concentration
[4] = Clinical study: pharmacokinetic model (NONMEM), Tmax, AUC, oral bioavailability
[5] = human, plasma, other: sublingual or buccal, 50 mg
[6] = human, plasma, other: sublingual or buccal, 100 mg
[7] = All data, 50 mg OTF based on formulation 15
[8] = All data, 2 × 50 mg OTF based on formulation 15
[9] = Buccally, 50 mg OTF based on formulation 15
[10] = Buccally, 2 × 50 mg OTF based on formulation 15
[11] = Sublingually, 50 mg OTF based on formulation 15
[12] = Sublingually, 2 × 50 mg OTF based on formulation 15
[13] = 50 mg (S)-Ketamine OTF, calculated using PK model
[14] = 100 mg (S)-Ketamine OTF, calculated using PK model

**Q.** Which lethal dose [1] does the source give for `CNC1(c2ccccc2Cl)CCCCC1=O` (racemic) [(S)-ketamine, (S)-(±)-2-(2-chlorophenyl)-2-(methylamino)cyclohexan-1-one] here?
**A.** 4.2 g/70 kg

**Q.** What about the “Dizziness (prevalence of events)” value ([2]; 20 mg (S)-ketamine IV) of the same compound?
**A.** 4

**Q.** What about the “Drowsiness (prevalence of events)” value ([2]; 20 mg (S)-ketamine IV) of the same compound?
**A.** 3

**Q.** What about the “Dry eyes (prevalence of events)” value ([2]; 20 mg (S)-ketamine IV) of the same compound?
**A.** 1

**Q.** And the “Headache (prevalence of events)” value ([2]; 20 mg (S)-ketamine IV)?
**A.** 3

**Q.** What about the “High blood pressure (SBP >180 mm Hg) (prevalence of events)” value ([2]; 20 mg (S)-ketamine IV) of the same compound?
**A.** 2

**Q.** What about the “Nausea (prevalence of events)” value ([2]; 20 mg (S)-ketamine IV) of the same compound?
**A.** 2

**Q.** And the “Sweating (prevalence of events)” value ([2]; 20 mg (S)-ketamine IV)?
**A.** 1

**Q.** What about the “Total side effects (prevalence of events)” value (“Total side effects” below) ([2]; 20 mg (S)-ketamine IV) of the same compound?
**A.** 17

**Q.** What about the “Whistling noise in the ear (prevalence of events)” value ([2]; 20 mg (S)-ketamine IV) of the same compound?
**A.** 1

**Q.** And the “Blurred vision (prevalence of events)” value ([2]; 50 mg (S)-ketamine OTF)?
**A.** 1

**Q.** What about the “Bradykinesia (prevalence of events)” value ([2]; 50 mg (S)-ketamine OTF) of the same compound?
**A.** 1

**Q.** And the “Dizziness (prevalence of events)” value ([2]; 50 mg (S)-ketamine OTF)?
**A.** 1

**Q.** And the “Feeling of drunkenness (prevalence of events)” value ([2]; 50 mg (S)-ketamine OTF)?
**A.** 2

**Q.** What about the “Headache (prevalence of events)” value ([2]; 50 mg (S)-ketamine OTF) of the same compound?
**A.** 1

**Q.** And the “Nausea (prevalence of events)” value ([2]; 50 mg (S)-ketamine OTF)?
**A.** 1

**Q.** And the “Total side effects” value ([2]; 50 mg (S)-ketamine OTF)?
**A.** 7

**Q.** What about the “Bradykinesia (prevalence of events)” value ([2]; 100 mg (S)-ketamine OTF) of the same compound?
**A.** 1

**Q.** And the “Dizziness (prevalence of events)” value ([2]; 100 mg (S)-ketamine OTF)?
**A.** 3

**Q.** And the “Headache (prevalence of events)” value ([2]; 100 mg (S)-ketamine OTF)?
**A.** 2

**Q.** What about the “Nausea (prevalence of events)” value ([2]; 100 mg (S)-ketamine OTF) of the same compound?
**A.** 1

**Q.** What about the “Numbness of the tongue (prevalence of events)” value ([2]; 100 mg (S)-ketamine OTF) of the same compound?
**A.** 2

**Q.** What about the “Total side effects” value ([2]; 100 mg (S)-ketamine OTF) of the same compound?
**A.** 9

**Q.** What about the “adverse events in total” value ([2]; whole study, OTF and IV) of the same compound?
**A.** 33

**Q.** What about the serious adverse events ([2]; whole study, OTF and IV) of the same compound?
**A.** None of these was a serious adverse event

**Q.** And the “test subjects reporting at least one adverse event” value ([2]; whole study, OTF and IV)?
**A.** 18

**Q.** What about the “plasma level following OTF compared to intravenous administration of 20 mg (S)-ketamine” value [3] of the same compound?
**A.** higher for intravenous administration

**Q.** And the Cmax ([3]; 50 mg, Buccally, 50 mg OTF based on formulation 15)?
**A.** 117 ng/mL

**Q.** And the Cmax ([3]; 50 mg, Sublingually, 50 mg OTF based on formulation 15)?
**A.** 95 ng/mL

**Q.** And the Cmax ([3]; 100 mg, Buccally, 2 × 50 mg OTF based on formulation 15)?
**A.** 158 ng/mL

**Q.** What about the Cmax ([3]; 100 mg, Sublingually, 2 × 50 mg OTF based on formulation 15) of the same compound?
**A.** 138 ng/mL

**Q.** And the Cmax ([3]; other: sublingual or buccal (all data), 50 mg, All data, 50 mg OTF based on formulation 15)?
**A.** 101 ng/mL

**Q.** And the Cmax ([3]; other: sublingual or buccal (all data), 100 mg, All data, 2 × 50 mg OTF based on formulation 15)?
**A.** 143 ng/mL

**Q.** And the AUC(0-t) [4, 5]?
**A.** 139 ng·h/mL

**Q.** And the Tmax [4, 5]?
**A.** 18.8 min

**Q.** And the AUC(0-t) [4, 6]?
**A.** 222 ng·h/mL

**Q.** And the Tmax [4, 6]?
**A.** 19.1 min

**Q.** With `N[C@]1(c2ccccc2Cl)CCC[C@H](O)C1=O` [(S)-Hydroxynorketamine] as the compound, how does the Cmax plasma concentration [3, 7] read?
**A.** 94 ng/mL

**Q.** What about the Cmax plasma concentration [3, 8] of the same compound?
**A.** 171 ng/mL

**Q.** What about the Cmax plasma concentration [3, 9] of the same compound?
**A.** 81 ng/mL

**Q.** And the Cmax plasma concentration [3, 10]?
**A.** 165 ng/mL

**Q.** And the Cmax plasma concentration [3, 11]?
**A.** 98 ng/mL

**Q.** And the Cmax plasma concentration [3, 12]?
**A.** 173 ng/mL

**Q.** What about the “plasma level following OTF compared to intravenous administration of 20 mg (S)-ketamine” value [3] of the same compound?
**A.** higher following administration of an OTF

**Q.** What about the Tmax [4, 13] of the same compound?
**A.** 81 (69-92) min

**Q.** What about the Tmax [4, 14] of the same compound?
**A.** 109 (89-130) min

**Q.** For `N[C@]1(c2ccccc2Cl)CCCCC1=O` [(S)-Norketamine], which Cmax plasma concentration [3, 7] is on record?
**A.** 254 ng/mL

**Q.** What about the Cmax plasma concentration [3, 8] of the same compound?
**A.** 330 ng/mL

**Q.** What about the Cmax plasma concentration [3, 9] of the same compound?
**A.** 242 ng/mL

**Q.** And the Cmax plasma concentration [3, 10]?
**A.** 450 ng/mL

**Q.** What about the Cmax plasma concentration [3, 11] of the same compound?
**A.** 258 ng/mL

**Q.** What about the Cmax plasma concentration [3, 12] of the same compound?
**A.** 323 ng/mL

**Q.** What about the “plasma level following OTF compared to intravenous administration of 20 mg (S)-ketamine” value [3] of the same compound?
**A.** higher following administration of an OTF

**Q.** What about the Tmax [4, 13] of the same compound?
**A.** 61 (53-68) min

**Q.** And the Tmax [4, 14]?
**A.** 78 (66-91) min
